“And” between values parts separate entries of the source, which are not always exact repeats. Equal values may be shown once. “Also recorded” adds a separate entry of the source.
How the values were obtained:
ME-180 cells = test: ME-180 cell growth (cell counting) with vitamin E or vitamin A derivatives; type: cell-based, human; conditions: for effect on ME-180 cell growth: 1 nM, 10 nM and 100 nM; for ME-180 cell growth: three days; for ME-180 cell growth vs negative control (FIG. 2): 1 μM or 10 μM, two days
Description: Cell Culture. Human cervical epithelial cells (ME-180, ATCC) were propagated in culture at 37° C. using 5% CO2 in McCoy's 5A media (Invitrogen) with 10% heat-inactivated fetal bovine serum (Invitrogen). Vitamin E was purchased from ICN Biomedicals. Vitamin E stock solutions were made up in absolute ethanol.
ME-180 cells were incubated with vitamin E at various concentrations for three days. At 10 μM vitamin E, ME-180 cell growth was inhibited (data not shown). However, this may be due to the presence of a larger concentration of ethanol (used as a solvent for vitamin E) in the media. […] At 1 μM vitamin E, ME-180 cell growth was enhanced more than the corresponding negative control. At 100 nM vitamin E, cell growth was not effected in comparison to the negative control. Therefore, a concentration of 1 μM vitamin E was used to measure changes in RNA expression over a 24 hour period.
Cell Proliferation of ME-180 Cells. ME-180 cells were incubated with vitamin A derivatives for a period of up to 3 days. ME-180 cells were counted on each day.

DTR = test: RT-PCR expression assay in ME-180 cells: DTR; type: cell-based, human; conditions: 1 μM vitamin E, 24 hours, absence of serum
[1] = test system: vascular endothelial growth factor (VEGF); test: RT-PCR expression assay in ME-180 cells: VEGF; type: cell-based, human
P2Y2 receptor gene = test: RT-PCR expression assay in ME-180 cells: P2Y2; type: cell-based, human
Description: (§1) RNA Extraction from ME-180 cells. ME-180 cells were plated at 2×10^5 cells per T75 flask (15 mL total volume) and were allowed to propagate for four days. On day four, the media was removed. Fifteen mL of McCoy's SA media with or without 10% FBS containing 0 or 1 μM vitamin E were added to ME-180 cells in duplicate. ME-180 cells were incubated with these solutions for 24 hours. The media was removed, and 1500 μL of lysis buffer was added to the flasks. The cells were scraped off of the flask with a cell scraper. The RNA was isolated using the Ambion RNAqueous kit according to the manufacturer's instructions. Precipitated RNA was resuspended in DEPC-treated water with 1 μL of RNase inhibitor.
(§2) Reverse Transcription of RNA. Approximately 7 μL of RNA was incubated with 3 μL of primer at 80° C. for 10 minutes then immediately placed on ice. A master mix containing 4 μL DEPC water, 4 μL 5× reaction buffer, 1 μL dNTPs, 1 μL of RNase inhibitor, and 1 μL of reverse transcriptase was made for the reactions. Ten μL of master mix was added to the RNA/primer solution and placed at 42° C. for 2 hours. The resulting cDNA was incubated with 3.5 μL of NaOH solution at 70° C. for 10 minutes to hydrolyze the remaining RNA. Five μL of 0.5M Tris/EDTA was added to neutralize the solution. To precipitate the cDNA, 125 μL of 3M NH4OAc, 5 μL of linear polyacrylamide, and 700 μL of absolute ethanol were added. The solutions were vortexed and placed at −20° C. overnight. Samples were centrifuged at 14000 rpm at 4° C. for 30 minutes. The ethanol was removed, and the samples were allowed to dry for 10 minutes. The cDNA was resuspended in 10-12 μL of PCR grade water.
Polymerase Chain Reaction (PCR). A master mix using the Advantage 2 PCR kit (Ambion) was made for the PCR reactions containing 37-38 μL of PCR grade water, 5 μL of 10×PCR buffer, 1 μL of dNTPs, 1 μL of β-actin primers (10 μM, optional control), and 2 μL of test primers (10 μM, P2Y2, or Mucin-4 (MUC-4)). Two microliters of cDNA and […] of DNA polymerase were added. […]

mucin-4 (MUC-4) = test: RT-PCR expression assay in ME-180 cells: mucin-4; type: cell-based, human; conditions: for mucin-4 expression: 1 μM vitamin E, 24 hours; for MUC-4 expression: 100 nM vitamin A
Description: as §1, §2
Polymerase Chain Reaction (PCR). A master mix using the Advantage 2 PCR kit (Ambion) was made for the PCR reactions containing 37-38 μL of PCR grade water, 5 μL of 10×PCR buffer, 1 μL of dNTPs, 1 μL of β-actin primers (10 μM, optional control), and 2 μL of test primers (10 μM, P2Y2, or Mucin-4 (MUC-4)). Two microliters of cDNA and […] of DNA polymerase were added. Cycling conditions were as follows: 5 min at 95° C.; 25-30 cycles (30 sec at 95° C., 1 min at 65° C., 3 min at 68° C.); 5 min at 68° C.
RNA was isolated (as described above) from ME-180 cervical cells treated with 0 nM or 100 nm vitamin A in the absence of serum. The RNA was reverse transcribed to form cDNA, and PCR techniques (as described above) were used to determine the effect of vitamin A on the expression of mucin-4 (MUC-4).

[2] = test system: estrogen receptor alpha (ER-α); test: RT-PCR expression assay in ME-180 cells: ER-α; type: cell-based, human; conditions: 100 nM vitamin A, no serum, 4, 8 and 16 hours
Description: Cell samples exposed to vitamin A in the absence of serum were also tested for expression of other genes that may also affect atrophic vaginitis. Using primers designed to amplify the estrogen receptor alpha (ER-α) gene, PCR was performed using the RNA samples from cells starved of serum. The ER-α product (650 bp) was visible in the control (FIG. 4, lane 2), where the template was cDNA from ME-180 cells cultured in the presence of serum. […] However, in the samples that were exposed to 100 nM vitamin A but no serum for 4, 8, and 16 hours, the […] gene was expressed (Lanes 4-6, respectively). […] Increasing the amount of estrogen receptors on epithelial cells in the genital tract may increase the probability that a receptor will be activated by estrogen.

[3] = test system: fibronectin production in human skin fibroblast cell line; test: Fibronectin production by human skin fibroblasts (Takara EIA MK115); type: cell-based; conditions: all concentrations tested, vs control
Description: The cells were first grown in a 96-well assay system using Dulbecco's Modified Eagle's Medium (DMEM) with 10% fetal bovine serum (FBS) both purchased from Sigma Chemical Co, St. Louis, Mo. Serum-free DMEM was used as a control. […] The fibronectin assay was performed using the recommended 100 μl of the supernatant from each well of the 96-well plate. Standard buffer and stop solutions were freshly prepared before running the assay. A pre-antibody-coated 96 well plate (provided with the kit) was used to transfer the test samples and control. The plate was mixed, sealed and incubated for 1 hour at 37° C. All the wells were washed after removing sample solutions, 3 times (300 μl) with washing buffer. 100 ul of antibody-POD conjugate solution was added into the wells. Plate was mixed, sealed and incubated for one hour at 37° C. Solutions were removed and the wells were washed 3 times with washing buffer. All the wells were completely emptied at the end of washing from any liquid. 100 μl of substrate solution (hydrogen peroxide and tetramethylbenzidine in a buffered solution) was added to each well and the plate was incubated at room temperature for 15 minutes. 100 μl of stop solution (freshly prepared 1N H2SO4) was added to each well in the same order as substrate. The plate was gently mixed and absorbance was read at 450 nm.

human skin keratinocytes = test: Keratinocyte proliferation, 96-well Cell Titer 96 assay; type: cell-based; conditions: 1×10^−4 to 1×10^−6 M
Description: The proliferative response of these human skin keratinocytes to the test compounds was measured in a 96-well assay system using keratinocyte basal medium (KBM, Clonetics, catalog number CC-3103) as a control. […] In addition, 100 μl of vehicle KBM was added to 5 wells as control. […] The spectrophotometric absorbance of each well was read at 490 nm.

[4] = test system: collagen production in human skin fibroblast cell line; test: Collagen production by human skin fibroblasts (Takara EIA MK101); type: cell-based; conditions: 1×10^−4 to 1×10^−6 M
Description: The cells were first grown in a 96-well assay system using Dulbecco's Modified Eagle's Medium (DMEM) with 10% fetal bovine serum (FBS) both purchased from Sigma Chemical Co, St. Louis, Mo. Serum-free DMEM was used as a control.
The assay was done by using the recommended 20 ul of the supernatant from each well of the 96-well plate. Standard buffer and stop solutions were freshly prepared before running the assay. 100 ul of antibody-POD conjugate solution (supplied with the kit) was added into the wells using pre antibody coated 96 well plate (supplied with the kit). 20 ul of standard and test solutions (from the other 96-well plate containing fibroblasts) were added to appropriate wells. Plate was mixed gently, sealed and incubated for three hrs. at 37° C.
After incubation each well was washed carefully four times with PBS buffer (400 ul). All the wells were completely emptied at the end of washing from any liquid.
100 ul of substrate solution (hydrogen peroxide and tetramethylbenzidine in a buffer solution, supplied with the kit) was added to each well and the plate was incubated for 15 minutes. At this point 100 ul of stop solution (freshly prepared 1N H2SO4) was added to each well in the same order as substrate. The plate was gently mixed and absorbance was read at 450 nm.

stratum corneum = test: Dansyl chloride cell renewal study in healthy female volunteers; type: in vivo, human
Excerpt: The stratum corneum renewal time is the time taken for the whole thickness of the stratum corneum to be exfoliated and replaced by new cells from the dividing epidermis. This renewal time is a fundamental indicator of skin health. […] See Jansen L H, Hojyo-Tomoko M T, Kligman A M., Improved fluorescence staining technique for estimating turnover of the human stratum corneum, Br J Dermatol., 90, 9-12, 1974; Ridge B D, Batt M D, Palmer H E, Jarrett A, The dansyl chloride technique for stratum corneum renewal as an indicator of changes in epidermal mitotic activity following topical treatment., Br J Dermatol., 118, 167-74, 1988; Grove G L, Kligman A M, Age-associated changes in human epidermal cell renewal., J Geron., 38, 137-142, 1983. The time required for the dye to disappear is therefore an indication of the turnover time of the stratum corneum. Therefore, any differences in the time required for the dye to disappear from treated and non-treated sites can be considered to be an expression of that product's ability to enhance epidermal renewal.
A dansyl chloride cell renewal study was conducted in healthy female volunteers ranging from 43-64 years of age. The study consisted of a two-week treatment period during which time the products were applied topically twice daily, including on weekend days, to the test sites. The area of application was designated, approximately 5 cm×10 cm on the upper inner arm. The other arm served as a control with no product application. […] Eight females received jasmonic acid and seven females received gibberellic acid.
The time required for a marker dye to disappear was used as the measure of cell renewal rate.

[5] = 1 μM vitamin E, 24 hours, absence of serum

CC1=C(/C=C/C(C)=C\C=C\C(C)=C\C(=O)O)C(C)(C)CCC1 [9-cis-retinoic acid]
effect on ME-180 cell growth (ME-180 cells): little effect

vitamin E
DTR expression (DTR): no observable difference
VEGF expression [1, 5]: no observable difference
P2Y2 expression (P2Y2 receptor gene; [5]): no observable difference
P2Y2 expression (P2Y2 receptor gene; 1 μM vitamin E, 24 hours, presence of serum): no significant changes
ME-180 cell growth (ME-180 cells; 100 nM vitamin E, vs negative control): not effected
ME-180 cell growth (ME-180 cells; 1 μM vitamin E, vs negative control): enhanced
ME-180 cell growth (ME-180 cells; 10 μM vitamin E, ethanol control also showed no growth): inhibited
mucin-4 expression (mucin-4 (MUC-4); absence of serum): increases; also recorded: significantly increased
mucin-4 expression (mucin-4 (MUC-4); presence of serum): no significant changes

CC1=C(/C=C/C(C)=C/C=C/C(C)=C\C(=O)O)C(C)(C)CCC1 [13-cis-retinoic acid]
effect on ME-180 cell growth (ME-180 cells): little effect
ME-180 cell growth vs negative control (FIG. 2) (ME-180 cells): did not grow as well as the negative control
toxicity to ME-180 cells (ME-180 cells; micromolar concentrations): toxic

CC1=C(/C=C/C(C)=C/C=C/C(C)=C/C(=O)O)C(C)(C)CCC1 [trans-retinoic acid]
VEGF expression ([1]; 100 nM vitamin A): increased
P2Y2 expression (P2Y2 receptor gene; 100 nM vitamin A, in the presence and in the absence of serum): increase
toxicity (conclusion of the ME-180 experiments) (ME-180 cells): nontoxic
ME-180 cell growth compared with other agents or unexposed control (ME-180 cells; 1 nM to 100 nM experiment): growing slightly faster
effect on ME-180 cell growth (ME-180 cells): little effect
ME-180 cell growth vs negative control (FIG. 2) (ME-180 cells): more cells were present
MUC-4 expression (mucin-4 (MUC-4); absence of serum, 4 hours or 8 hours): detectable
MUC-4 expression (mucin-4 (MUC-4); absence of serum, 16 hours): decreases but is still detectable
ER-α expression [2]: expressed; also recorded: increase

C=C1C[C@]23C[C@@]1(O)CC[C@H]2[C@@]12C=C[C@H](O)[C@@](C)(C(=O)O1)[C@H]2[C@@H]3C(=O)O [gibberellic acid, Gibberellin A3]
fibronectin production in human fibroblasts (summary in words) [3]: effective
cell proliferating activity on human keratinocytes (summary in words) (human skin keratinocytes): strong cell proliferating activity
collagen production in human fibroblasts (summary in words) [4]: stimulate collagen production
skin irritation or redness (stratum corneum; 0.25% topical twice daily, two weeks, all study volunteers): no visible sign of any skin irritation or redness
RENEWAL, time for cell renewal of treated skin (stratum corneum; individual patients (one value per patient #), 0.25% in hyaluronic acid (0.5% aqueous solution), topical twice daily, upper inner arm, listed as GA): 14 Days (2×) and 12 Days (2×) and 19 Days and 17 Days and 21 Days
faster cell renewal rate over control (stratum corneum; overall, 0.25% topical, vs untreated arm): 20%
reduction in time required for cell renewal vs untreated control (stratum corneum; vs volunteers' control without treatment): about 20%

— patent US8344022B2, “Vaginal health products” (Kimberly-Clark Worldwide, Inc., priority 2004, dated 2013)
